Values quoted from earlier work, collected in patent US20190151634A1, “TREATMENT OF EXCESSIVE MENSTRUAL BLOOD LOSS BY FEMININE SANITARY PRODUCTS MEDICATED WITH HEMOSTATIC AGENT” (ARSTAT, INC., priority 2011, published 2019).

Key:
[1] = oral, 6 g/day (EMEA review)
[2] = mouthwash, compared to placebo
[3] = locally administered, without detectable plasma drug levels
[4] = after administration of an oral tablet

plasma concentrations (after a mouth rinse) | saliva concentrations, maximum level (after a mouth rinse) | time saliva concentration remained at a therapeutic level (after a mouth rinse) | drug in saliva samples [4] | mean drug plasma concentrations [4] [µg/mL] | Molecule | risk of gastrointestinal adverse events [1] | incidence of postoperative bleeding complications [2] | postoperative blood loss [3]
below 2 mcg/mL | above 200 mcg/mL | more than two hours | not detected | 7 | NC[C@H]1CC[C@H](C(=O)O)CC1 [tranexamic acid] | increased | reduce the incidence of postoperative bleeding complications | 
 |  |  |  |  | aprotinin |  |  | Reduction of the postoperative blood loss
